# PMC3919114, “Induction of Apoptosis of 2,4′,6-Trihydroxybenzophenone in HT-29 Colon Carcinoma Cell Line” (BioMed Research International, 2014)
# Read-outs that look alike come from different tables or passages of the source.
# Tests used:
# [1] = test system: human esophageal cancer cells (TE-2); details: cited from earlier work
# [2] = test system: HT-29 human colon carcinoma cell line; assay: MTT cell proliferation assay, HT-29; format: cell-based; details: read-out: IC50 against HT-29 cells
# Description: (§1) The HT-29 human colon carcinoma cell line, WRL-68 normal liver cells, and MRC-5 normal lung fibroblast […] cells were purchased from the American Type Culture Collection (ATCC, USA). The cells were placed into tissue culture flasks and grown in a medium containing 10% fetal bovine serum, 100 μg/mL of penicillin/streptomycin, and 100 μg/mL of amphotericin B at 37°C in a humidified atmosphere containing 5% CO2.
# (§2) The MTT […]) cell proliferation assay was based on the protocol described by Mosmann. Briefly, cells from a confluent tissue culture flask were spun at 1,000 rpm for five minutes and resuspended in 1.0 mL of growth medium. Cells were then seeded into 96 well plates and incubated in a CO2 incubator at 37°C for 24 hours to allow the cells to adhere and achieve 70%–80% confluence. After 24 hours, the media was removed and the test compound, at varying concentrations of 4, 38, 96, 192, and 384 μM with 200 μL of 10% medium, was added to the respective wells. For negative control, untreated cells were used. After 24 h, 48 h, and 72 h of incubation, respectively, each well had 10 μL of the MTT stock solution added to the test sample and was then incubated in a dark place for three hours. The medium with the MTT solution was removed and 200 μL of absolute DMSO was added to each well in order to solubilise the formazan crystals that had formed. The total amount of formazan crystals was examined by measuring the absorbance at 540 nm using an ELISA plate reader. The assay was carried out in triplicate.
# (§3) The percentage of inhibition (%) was calculated using the following formula: (1) percentage of inhibition (%) =OD control−OD sample×100% /OD control, where OD = optical densities.
# (§4) The IC50 value is the concentration of test compounds which cause 50% inhibition or cell death, average from three experiments, and was obtained by plotting the percentage of inhibition versus the concentration of test compounds [13].
# [3] = test system: human normal liver cells (WRL-68); assay: MTT cell proliferation assay, WRL-68; format: cell-based
# Description: as §1, §2, §3, §4
# [4] = test system: human normal fibroblast lung cells (MRC-5); assay: MTT cell proliferation assay, MRC-5; format: cell-based
# Description: as §1, §2, §3, §4
# [5] = Annexin V-FITC/PI staining assay by flow cytometry; format: cell-based, human; details: human, HT-29 cells, 24 h, read-out: viable cells (LL)
# Description: (§5) The quantification of cell death was determined by flow cytometry using the Annexin V-FITC apoptosis detection kit according to the manufacturer's instructions (BD Pharmingen, BD Bioscience, USA). Briefly, 1 × 10^6 of the HT-29 cells were seeded into each Petri dish (30 mm) and after a 24 h incubation, various concentrations of the test compound were added and incubated for 24 h, 48 h, and 72 h, respectively. The cells were then washed with PBS, suspended in annexin V binding buffer and then added to an annexin V-FITC solution and propidium iodide (PI) for 10 minutes at room temperature. The samples were then analyzed using FACScalibur (BD Bioscience, USA) using CellQuest Pro analysis software (Becton Dickinson, USA).
# (§6) Cells were treated with various concentrations (96 μM, 192 μM, and 288 μM) of the compound for 24 h, 48 h, and 72 h, respectively. They were then harvested with accutase and phosphate buffer saline and centrifuged, after which they were stained with Annexin V-FITC and propidium iodide and analyzed in FACScalibur with CellQuest Pro software. The number of early apoptotic cells, late apoptotic cells, live cells, and necrotic cells was counted in every 10,000 cells of each treatment. All data was expressed as the mean ± SD (standard deviation). The standard deviation was calculated for the treated and untreated cells. The SPSS program (version 16.0) found a significant difference between the treated and untreated cells ([…]).
# HT-29 cells [6] = assay: Annexin V-FITC/PI staining assay by flow cytometry; format: cell-based, human
# Description: as §5, §6
# HT-29 cells [7] = assay: Cell cycle analysis by flow cytometry (PI staining); format: cell-based, human; details: IC50 value of 115 μM
# Description: After incubation, the cells were collected by trypsinization, fixed in ethanol, washed in warm PBS, and incubated at −20°C, overnight. Next, the cells were washed with 1 mL of cold PBS and stained with propidium iodide according to the Cycle TEST PLUS DNA Reagent Kit (Becton Dickinson, USA) protocol. The cells were sorted in a FACScalibur flow cytometer (BD, USA) using CellQuest Pro software (Becton Dickinson, USA) and a quantitative analysis of the cell cycle distribution was performed using a trial version of the ModFit LT software, version 4.0.
# The HT-29 cells were treated with isolated bioactive 2,4′,6-trihydroxy-4-methoxybenzophenone for 24 h, 48 h, and 72 h. Treated and untreated cells were harvested with accutase and phosphate buffer saline, centrifuged, and stained with propidium iodide. The HT-29 cells were then analyzed by flow cytometry using CellQuest Pro software and their distribution in different phases of the cell cycle is shown in Figure 6(a). The resulting data were tabulated using the trial version of the ModFit L.V 4.0 software to represent a percentage of each cell cycle phase (G0/G1, S, and G2/M), as shown in Figure 6(b).
# Mcl-1 = assay: Western blot analysis, Mcl-1 expression in HT-29 cells; format: cell-based, human; details: IC50 concentration (115 μM), 24 h, 48 h and 72 h
# Description: (§7) The HT-29 cells were cultured in […] tissue culture flasks and incubated at 37°C under 5% CO2 until confluent. […] After incubation at the various times, the cells were detached with accutase in PBS, washed thoroughly with PBS twice, and were then lysed with protein lysis buffer (Sigma, USA) containingprotease inhibitors and shaken by hand for 15 min at room temperature. The lysates were then centrifuged at 13,000 ×g for 20 min at 4°C and the supernatant was collected for protein samples and kept at […] until SDS page analysis. Protein concentration was determined using a BCA (bicinchoninic acid) protein assay kit (Invitrogen, USA) with bovine serum albumin as the standard.
# (§8) The proteins were transferred into polyvinylidene difluoride (PVDF) membranes by semidry transfer. Bands were visualized using the Western Max Horseradish Peroxidase Chromogenic Detection Kit protocol (AMRESCO, USA). Briefly, the membranes were blocked in a blocking buffer for 30 min at room temperature. Primary antibodies for Bcl-2, Bcl-xL, PUMA, Mcl-1, Bak, Bad, and Bax were then added. The membranes were incubated with gentle agitation at room temperature overnight. After incubation, the membranes were washed with washing buffer two times and then incubated with Western Max HRP Conjugated Anti-Rabbit Antibody for 45 min at room temperature with gentle agitation. […]
# PUMA = assay: Western blot analysis, PUMA expression in HT-29 cells; format: cell-based, human; details: IC50 concentration (115 μM), 24 h, 48 h and 72 h
# Description: as §7, §8
# Bcl-2 = assay: Western blot analysis, Bcl-2 expression in HT-29 cells; format: cell-based, human; details: IC50 concentration (115 μM), 72 h treatment only
# Description: as §7, §8
# Bak = assay: Western blot analysis, Bak expression in HT-29 cells; format: cell-based, human; details: IC50 concentration (115 μM), 72 h treatment only
# Description: as §7, §8
# HT-29 cells [8] = assay: Morphological detection of apoptosis (inverted and phase-contrast microscopy); format: cell-based, human; details: IC50 concentrations (115 μM), 24 h, 48 h, 72 h
# Description: HT-29 cells were placed in a Petri dish (30 mm) at a density of 1 × 10^5 cells/well plate and grown for 24 h. […] After the various incubation periods, morphological changes in the apoptotic bodies of the HT-29 cells were examined by inverted and phase-contrast microscopy (Leica, Germany) and photographed.
# [9] = test system: breast cancer cell line (MDA-MB231); details: cited from earlier work
# [10] = set-up: method as in earlier work; details: from ethyl acetate extract of the leaves; cited from earlier work
compound,measurement,setting,value
O=C(O)c1cc(O)c(O)c(O)c1 [Gallic acid],anticancer properties against TE-2 cells,[1],possess anticancer properties
"COc1cc(O)c(C(=O)c2ccc(O)cc2)c(O)c1 [2,4′,6-trihydroxy-4-methoxybenzophenone]",IC50,[2]; 24 h,172 ± 2.21 µM
same,IC50,[2]; 48 h,144 ± 2.66 µM
same,IC50,[2]; 72 h,122 ± 1.69 µM
same,IC50,"[3]; WRL68, 24 h",≥ 384 µM
same,IC50,"[3]; WRL68, 48 h",331 ± 0.69 µM
same,IC50,"[3]; WRL68, 72 h",235 ± 1.03 µM
same,IC50,"[4]; MRC5, 24 h",≥ 384 µM
same,IC50,"[4]; MRC5, 48 h",269 ± 0.96 µM
same,IC50,"[4]; MRC5, 72 h",356 ± 1.21 µM
same,"viability at 24 h, 96 µM",[5]; 96 μM,69.3%
same,"viability at 24 h, 192 µM",[5]; 192 μM,35.2%
same,"viability at 24 h, 288 µM",[5]; 288 μM,23.8%
same,early apoptotic cells (LR),"HT-29 cells [6]; 96 μM, 24 h",2.96%
same,late apoptotic cells (UR),"HT-29 cells [6]; 96 μM, 24 h",12.28%
same,primary necrotic cells (UL),"HT-29 cells [6]; 96 μM, 24 h",15.49%
same,early apoptotic cells (LR),"HT-29 cells [6]; 96 μM, 48 h",10.87%
same,late apoptotic cells (UR),"HT-29 cells [6]; 96 μM, 48 h",31.48%
same,primary necrotic cells (UL),"HT-29 cells [6]; 96 μM, 48 h",8.04%
same,early apoptotic cells (LR),"HT-29 cells [6]; 96 μM, 72 h",1.33%
same,late apoptotic or secondary necrotic cells (UR),"HT-29 cells [6]; 96 μM, 72 h",15.77%
same,live cells (LL),"HT-29 cells [6]; 96 μM, 72 h",52.21%
same,primary necrotic cells (UL),"HT-29 cells [6]; 96 μM, 72 h",30.69%
same,early apoptotic cells (LR),"HT-29 cells [6]; 192 μM, 24 h",8.46%
same,late apoptotic cells (UR),"HT-29 cells [6]; 192 μM, 24 h",25.98%
same,primary necrotic cells (UL),"HT-29 cells [6]; 192 μM, 24 h",30.40%
same,early apoptotic cells (LR),"HT-29 cells [6]; 192 μM, 48 h",4.74%
same,live cells (LL),"HT-29 cells [6]; 192 μM, 48 h",34.22%
same,primary necrotic cells (UL),"HT-29 cells [6]; 192 μM, 48 h",35.05%
same,early apoptotic cells (LR),"HT-29 cells [6]; 192 μM, 72 h",14.34%
same,late apoptotic or secondary necrotic cells (UR),"HT-29 cells [6]; 192 μM, 72 h",58.97%
same,live cells (LL),"HT-29 cells [6]; 192 μM, 72 h",12.73%
same,primary necrotic cells (UL),"HT-29 cells [6]; 192 μM, 72 h",13.96%
same,early apoptotic cells (LR),"HT-29 cells [6]; 288 μM, 24 h",6.71%
same,late apoptotic cells (UR),"HT-29 cells [6]; 288 μM, 24 h",50.81%
same,primary necrotic cells (UL),"HT-29 cells [6]; 288 μM, 24 h",19.63%
same,early apoptotic cells (LR),"HT-29 cells [6]; 288 μM, 48 h",8.51%
same,late apoptotic cells (UR),"HT-29 cells [6]; 288 μM, 48 h",54.67%
same,live cells (LL),"HT-29 cells [6]; 288 μM, 48 h",26.80%
same,primary necrotic cells (UL),"HT-29 cells [6]; 288 μM, 48 h",10.02%
same,early apoptotic cells (LR),"HT-29 cells [6]; 288 μM, 72 h",0.28%
same,late apoptotic or secondary necrotic cells (UR),"HT-29 cells [6]; 288 μM, 72 h",8.45%
same,live cells (LL),"HT-29 cells [6]; 288 μM, 72 h",54.64%
same,primary necrotic cells (UL),"HT-29 cells [6]; 288 μM, 72 h",36.63%
same,cell percentage in the G2/M phase,HT-29 cells [7]; 24 h,13.61%
same,cell percentage in the S phase,HT-29 cells [7]; 24 h,15.70%
same,percentage of diploid cells in the G0/G1 phase,HT-29 cells [7]; 24 h,70.69%
same,effect on cell cycle,"HT-29 cells [7]; 24 h, 48 h, 72 h, time-dependent",cell cycle arrest in the G0/G1 phase
same,cell percentage in the G2/M phase,HT-29 cells [7]; 48 h,3.17%
same,cell percentage in the S phase,HT-29 cells [7]; 48 h,16.85%
same,percentage of diploid cells in the G0/G1 phase,HT-29 cells [7]; 48 h,79.98%
same,cell percentage in the G2/M phase,HT-29 cells [7]; 72 h,3.20%
same,cell percentage in the S phase,HT-29 cells [7]; 72 h,8.60%
same,percentage of diploid cells in the G0/G1 phase,HT-29 cells [7]; 72 h,88.21%
same,expression of Mcl-1,Mcl-1,significantly upregulated
same,expression of PUMA,PUMA,significantly upregulated
same,expression of Bcl-2,Bcl-2,only up-regulated for 72 h treatment
same,expression of Bak,Bak,only up-regulated for 72 h treatment
same,morphological changes associated to apoptosis,HT-29 cells [8],"membrane blebbing, cell shrinkage, chromatin condensation, apoptotic nuclei, and DNA fragmentation"
same,antiproliferation activity against MDA-MB231,[9],displayed antiproliferation activity
same,antioxidant activity,[10],good antioxidant activity
"COc1cc(O)c(C(=O)c2ccc(O)cc2)c(O[C@@H]2O[C@H](CO)[C@@H](O)[C@H](O)[C@H]2O)c1 [4′,6-dihydroxy-4-methoxybenzophenone 2-o-β-D-glucopyranoside]",antiproliferation activity against MDA-MB231,[9],displayed antiproliferation activity
